Results on nine compounds are retold here after patent US8962637B2, “Bicyclic compounds and their uses as dual c-SRC/JAK inhibitors” (Debiopharm S.A., priority 2010, dated 2015).

In one data set the test system is A549 tumor cells. Kind of data set: A549 xenograft model. The data set is classed as in vivo. The settings on record: A549 Xenograft model. The protocol:
Sub-cutaneous (SC) injection of 5×10^6 A549 tumor cells on the left flank of 48 female athymic nude mice. Randomization of mice 14 days after tumor cell injection into 6 groups of 8 mice each with a mean tumor volume of 134±5 mm3.
Formulation: 20% HPC, 2% ethanol solution in PBS for the compounds No. 45, 117 and 179.
• Normal saline for Erlotinib® Dosing route: Oral for the compounds No. 45, 117 and 179, and Erlotinib® Dose Volume: 10 mL/Kg body weight Dosing schedule: Once daily for 14 consecutive days (Q1Dx14) Dosage: • Group1. Vehicle control • Group2. Erlotinib®-100 MPK • Group3. Compound No. 45—10 MPK • Group4. Compound No. 45—30 MPK • Group5. Compound No. 45—100 MPK • Group6. Compound No. 117—30 MPK • Group7. Compound No. 117—100 MPK • Group8. Compound No. 179—10 MPK • Group9. […] Plasma collected for drug concentration estimation and whole blood was collected to isolate PBMCs (peripheral blood monocytes) to determine pStat3 inhibition by flow cytometry as PD readout. Tumors were snap frozen in liquid nitrogen and stored at −80° C. to estimate pStat3 by flow cytometry as PD readout EXPT. 2
SC injection of 5×10^6 A549 tumor cells on the left flank of 24 female athymic nude mice. Randomization of mice 14 days after tumor cell injection into 3 groups of 8 mice each with a mean tumor volume of 75±7 mm3.
Formulation: 20% HPC, 2% ethanol solution in PBS for the compound No. 45
• Normal saline for Erlotinib® Dosing route: Oral for compound No. 45 and Erlotinib® Dose Volume: 10 mL/Kg body weight Dosing schedule: Once daily for 14 consecutive days (Q1Dx14) Dosage: • Group1. Vehicle control • Group2. Compound No. 45—150 MPK • Group3. […] Plasma collected for drug concentration estimation and whole blood was collected to isolate PBMCs to determine pStat3 inhibition by flow cytometry as PD readout. Tumors were snap frozen in liquid nitrogen and stored at −80° C. to estimate pStat3 by flow cytometry as PD readout Results: […]

The test system of data set [1] is pStat3. The experiment in a line: Quantification of pStat3 in tumors by flow cytometry. The data set is classed as in vivo, mice. The settings on record: A549 Xenograft model. The protocol:
(§1) Measured pStat3 using FACS caliber machine (BD). Unstained PBMCs was used for cytometry settings. […] Histograms (cell number V/s FL1-H) were plotted. Percentage of cells that are phosphorylated by IL6 stimulation (M2 population), and inhibition of phosphorylation by inhibitor (decrease in M2 population) are calculated on histogram by marking peaks, M1 and M2.
Separate the tumour & 200 mg of tumour was crashed (45 mg per ml) by using IKA 10 at Speed #4 for 10 seconds. Sieve the tumour extract through 100 u, centrifuge at 900 g for 10 min. Re-suspend cells briefly in 0.5-1 ml PBS. Add formaldehyde to a final concentration of 2-4% formaldehyde. Fix for 10 minutes at 37° C. Chill tubes on ice for 1 minute.
Permeabilize cells by adding ice-cold 100% methanol slowly to pre-chilled cells, while gently vortexing, to a final concentration of 90% methanol. Alternatively, to remove fix prior to permeabilization, pellet cells by centrifugation and re-suspend in 90% methanol. Incubate 30 minutes on ice. Proceed with staining or store cells at −20° C. in 90% methanol. Aliquot 0.5-1×10^6 cells into each assay tube (by volume). Add 2-3 ml Incubation Buffer to each tube and rinse by centrifugation. Repeat. Re-suspend cells in 100 μl Incubation Buffer per assay tube. Analyze by flow cytometry like PBMCs.

Data set [2] has as its system pStat3. Kind of data set: Quantification of pStat3 in PBMCs by flow cytometry. It is filed as in vivo, mice. The settings on record: A549 Xenograft model. The protocol: Phosphorylation of Stat3 was stimulated by addition of hIL6 (10 ug/mL) for 30 min at 37° C. Blood was fixed with formaldehyde (final 2% v/v) for 10 min at 37° C.
Buffy coat (PBMCs) was separated by aspirating translucent layer using pipetteman and washed twice with PBS-1×
Pre chilled PBMC's were permeabilized by adding ice cold Methanol, while vortexing gently (final volume 90% MeOH v/v) and incubated for 30 min on ice.
Permeabilized PBMCs were washed with PBS once. PBMCs re-suspended to 2×10^6 cells in 200 μL of incubation buffer for 10 min at room temperature (RT). Primary Ab was added (1:100 dilution) and incubated 45 min at RT. Washed as before (twice) and re-suspended in fluorochrome conjugated secondary Ab (1:500 dilution) and incubated at RT in dark for 30 min. Washed and re-suspended in […] PBS.
as §1
On the technique in general: A flow cytometer gives signals particle by particle.

In the next data set the test system is Mda-Mb-231 cells. The experiment in a line: Cell viability assay (XTT assay), Mda-Mb-231. The settings on record: Homo sapiens, 72 hrs. The data set is classed as cell-based. The method, boiled down: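 MDA-MB-231 cells seeded and dosed next day in triplicate, incubated 72 h. Medium replaced with XTT working solution for 2-5 h, absorbance read at 465 nm, and EC50 values derived from the readings.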
For orientation: Tetrazolium assays rely on reduction of a dye to a coloured formazan, in cell work by metabolically active cells.

Another data set in a line: Volume distribution. The settings on record: in vivo. An excerpt: Table 8 provides some volume distribution values of the compounds of the present invention.
For a further data set, the target named is c-Src (Homo sapiens (Human), UniProt P12931). Kind of data set: TR-FRET c-Src kinase assay. The data set is classed as biochemical. The settings on record: ATP 50 μM; for inhibition at 0.1 µM: read-out: c-SRC % inhibition at 100 nM, 100 nM; for inhibition at 1 µM: read-out: c-SRC % inhibition at 1 μM. On the procedure: (§2) Compounds were screened in the TR-FRET assay for JAK2 and c-Src kinase inhibition. Ultra light poly GT (Perkin Elmer) was used as the substrate for JAK2 and c-Src with the ATP concentration of 10 μM and 50 μM, respectively. […] The dose-response curve fitting was done using GraphPad Prism software.
Chain of c-Src (P12931 whole entry, looked up): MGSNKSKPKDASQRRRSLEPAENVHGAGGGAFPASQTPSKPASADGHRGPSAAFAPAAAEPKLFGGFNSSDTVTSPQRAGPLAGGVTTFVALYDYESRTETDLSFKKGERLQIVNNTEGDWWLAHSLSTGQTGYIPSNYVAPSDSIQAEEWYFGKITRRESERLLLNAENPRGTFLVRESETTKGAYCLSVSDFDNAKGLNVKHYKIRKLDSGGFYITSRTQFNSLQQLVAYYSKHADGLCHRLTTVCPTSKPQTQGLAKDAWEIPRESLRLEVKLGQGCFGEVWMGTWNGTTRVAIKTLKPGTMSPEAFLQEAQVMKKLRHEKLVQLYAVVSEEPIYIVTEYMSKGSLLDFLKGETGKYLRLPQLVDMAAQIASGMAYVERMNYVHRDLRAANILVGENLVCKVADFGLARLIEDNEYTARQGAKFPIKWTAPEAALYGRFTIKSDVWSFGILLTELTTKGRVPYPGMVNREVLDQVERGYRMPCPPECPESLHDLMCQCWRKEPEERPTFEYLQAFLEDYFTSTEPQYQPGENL

Another data set has as its target JAK2 (Homo sapiens (Human), UniProt O60674). Kind of data set: TR-FRET JAK2 kinase assay. It is filed as biochemical. The settings on record: ATP 10 μM; for inhibition at 0.1 µM: read-out: JAK2 % inhibition at 100 nM, 100 nM; for inhibition at 1 µM: read-out: JAK2 % inhibition at 1 μM. On the procedure:
as §2
On the technique in general: Time-resolved FRET reads energy transfer from a long-lived donor to a nearby acceptor.

The next data set deals with JAK1 (Homo sapiens (Human), UniProt P23458). Kind of data set: JAK1 kinase inhibition. The data set is classed as biochemical. The settings on record: for inhibition at 0.1 µM: read-out: JAK1 % inhibition at 100 nM; for inhibition at 1 µM: read-out: JAK1 % inhibition at 1 μM.
Chain of JAK1 (P23458 whole entry): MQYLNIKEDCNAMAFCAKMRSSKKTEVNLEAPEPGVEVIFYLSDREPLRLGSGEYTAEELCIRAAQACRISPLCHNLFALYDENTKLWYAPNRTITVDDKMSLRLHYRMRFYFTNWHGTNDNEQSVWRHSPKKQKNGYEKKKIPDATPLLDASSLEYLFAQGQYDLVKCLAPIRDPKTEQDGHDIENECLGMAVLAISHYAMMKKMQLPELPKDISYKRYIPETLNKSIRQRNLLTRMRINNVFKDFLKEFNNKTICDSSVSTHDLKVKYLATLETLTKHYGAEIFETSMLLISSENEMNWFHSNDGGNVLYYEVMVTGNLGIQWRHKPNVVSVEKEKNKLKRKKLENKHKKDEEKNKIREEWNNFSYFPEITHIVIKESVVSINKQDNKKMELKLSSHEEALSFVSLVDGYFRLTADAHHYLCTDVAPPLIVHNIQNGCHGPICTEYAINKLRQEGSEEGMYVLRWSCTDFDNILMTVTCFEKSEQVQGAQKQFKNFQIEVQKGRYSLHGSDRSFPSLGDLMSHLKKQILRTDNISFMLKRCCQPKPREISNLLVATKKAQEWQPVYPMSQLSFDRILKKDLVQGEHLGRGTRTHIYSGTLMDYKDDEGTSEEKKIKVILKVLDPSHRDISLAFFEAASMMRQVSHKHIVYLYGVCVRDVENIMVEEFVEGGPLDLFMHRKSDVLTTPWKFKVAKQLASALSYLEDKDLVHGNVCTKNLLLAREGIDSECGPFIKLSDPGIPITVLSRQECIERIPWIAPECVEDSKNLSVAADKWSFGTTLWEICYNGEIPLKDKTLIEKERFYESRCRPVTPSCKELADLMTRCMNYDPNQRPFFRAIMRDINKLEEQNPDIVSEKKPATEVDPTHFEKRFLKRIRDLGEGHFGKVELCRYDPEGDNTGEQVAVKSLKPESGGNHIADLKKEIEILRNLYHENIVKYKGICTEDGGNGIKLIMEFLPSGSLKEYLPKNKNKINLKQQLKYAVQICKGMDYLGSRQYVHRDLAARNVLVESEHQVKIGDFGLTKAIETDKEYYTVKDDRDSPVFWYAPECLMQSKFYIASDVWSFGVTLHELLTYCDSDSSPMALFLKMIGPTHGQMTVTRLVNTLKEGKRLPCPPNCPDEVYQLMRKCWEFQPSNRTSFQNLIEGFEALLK
Another data set deals with A549 cells. The experiment in a line: Cell viability assay (XTT assay), A549. The settings on record: Homo sapiens, 72 hrs. The data set is classed as cell-based. On the procedure:
Next day compounds were added to cells and incubated for 72 hrs. Compound treatment was done in triplicates. After 72 hrs cell culture media was aspirated from the wells and XTT working solution was added and plates were incubated for 2-5 hrs. […] EC50 values were calculated using Graphpad Prism. Tumor cell lines used in the examples of the present invention were procured from ATCC. Description of the cell lines is included in the following table: […]

Data set [3] concerns pStat3. Kind of data set: In-Cell-Western blot assay for pStat3 (ICW) in A431 cells. The data set is classed as cell-based. The settings on record: Homo sapiens, A-431, 2 hrs, read-out: pSTAT3 inhibition. The method, boiled down: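 Serum-starved (overnight) A431 cells treated with compound for 2 hrs, then fixed, permeabilized and probed with phospho-Stat3 antibody plus europium-labelled secondary. Europium signal normalized to Hoechst for cell number; IC50 calculated from normalized values.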

A further data set deals with A431 cancer cell line. The experiment in a line: Inhibition of cell growth in A431. The settings on record: Homo sapiens, A-431. It is filed as cell-based.

Chain of JAK2 (O60674 whole entry): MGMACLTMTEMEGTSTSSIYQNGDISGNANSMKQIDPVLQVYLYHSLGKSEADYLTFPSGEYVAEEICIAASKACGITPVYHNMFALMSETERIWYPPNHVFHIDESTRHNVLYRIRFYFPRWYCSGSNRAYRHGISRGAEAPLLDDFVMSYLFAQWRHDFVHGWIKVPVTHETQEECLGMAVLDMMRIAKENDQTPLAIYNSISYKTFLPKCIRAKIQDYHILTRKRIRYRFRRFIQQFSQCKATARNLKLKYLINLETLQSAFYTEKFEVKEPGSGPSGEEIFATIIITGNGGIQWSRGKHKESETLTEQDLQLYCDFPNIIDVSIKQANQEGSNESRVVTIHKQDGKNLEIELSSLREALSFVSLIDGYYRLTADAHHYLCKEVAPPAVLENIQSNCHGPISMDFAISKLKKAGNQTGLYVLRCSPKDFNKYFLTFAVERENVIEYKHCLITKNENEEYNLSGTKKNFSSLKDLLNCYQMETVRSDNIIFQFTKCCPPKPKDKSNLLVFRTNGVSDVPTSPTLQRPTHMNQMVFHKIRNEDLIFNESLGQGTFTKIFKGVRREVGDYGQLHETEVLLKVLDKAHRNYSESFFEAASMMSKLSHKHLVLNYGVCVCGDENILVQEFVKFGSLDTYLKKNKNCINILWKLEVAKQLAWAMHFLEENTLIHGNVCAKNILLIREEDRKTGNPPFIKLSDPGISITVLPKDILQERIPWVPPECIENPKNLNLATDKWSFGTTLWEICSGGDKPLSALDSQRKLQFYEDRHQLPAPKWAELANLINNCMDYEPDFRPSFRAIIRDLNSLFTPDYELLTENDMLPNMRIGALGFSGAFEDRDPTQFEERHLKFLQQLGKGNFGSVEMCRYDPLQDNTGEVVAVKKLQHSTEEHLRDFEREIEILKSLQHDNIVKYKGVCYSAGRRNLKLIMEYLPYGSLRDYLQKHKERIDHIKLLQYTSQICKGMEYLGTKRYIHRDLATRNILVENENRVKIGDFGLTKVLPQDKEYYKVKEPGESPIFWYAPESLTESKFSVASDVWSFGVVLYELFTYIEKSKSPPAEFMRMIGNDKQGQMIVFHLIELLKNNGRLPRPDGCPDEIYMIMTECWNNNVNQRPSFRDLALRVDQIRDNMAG

Regarding `CCC1=C[C@@H]2CN(C1)Cc1c([nH]c3ccccc13)[C@@](C(=O)OC)(c1cc3c(cc1OC)N(C)[C@H]1[C@@](O)(C(=O)OC)[C@H](OC(C)=O)[C@]4(CC)C=CCN5CC[C@]31[C@@H]54)C2` [Vinorelbine, reference compound], the “% TGI (Tumor Growth Inhibition)” value in the data set with A549 tumor cells (8 MPK) stood at 51.89%. Further, the “Tumors % pStat3 inhibition” value with pStat3 [1] (8 MPK) stood at 25.2%. The “PBMCs % pStat3 inhibition” value in the data set on pStat3 [2] (8 MPK) was 28.8%.
Consider `C#Cc1cccc(Nc2ncnc3cc(OCCOC)c(OCCOC)cc23)c1` [Erlotinib, reference compound], for which, in the data set on A549 tumor cells (100 MPK), the “% TGI (Tumor Growth Inhibition)” value came out at 59.55%. Further, in the data set with pStat3 [1] (100 MPK), the “Tumors % pStat3 inhibition” value is given as 28.14%. The “PBMCs % pStat3 inhibition” value in the data set with pStat3 [2] (100 MPK) was 44.43%.
`Cc1ccc(NC(=O)CCC(F)(F)F)cc1N1CCc2nc(Nc3ccc(OCCN4CCCC4)cc3)ncc2C1` [Compound 147, 4,4,4-Trifluoro-N-(4-methyl-3-{2-[4-(2-pyrrolidin-1-yl-ethoxy)-phenylamino]-7,8-dihydro-5H-pyrido[4,3-d]pyrimidin-6-yl}-phenyl)-butyramide]: the EC50 (usually the concentration at which the effect is half-maximal) in the data set with Mda-Mb-231 cells was determined as 0.72 µM. Besides, the Vd (in general, a proportionality between amount in the body and measured concentration, not a real space) in “Volume distribution” amounted to 20.6 L/kg. Also, on c-Src, the inhibition – broadly, the relative decrease from the control value, in per cent – at 0.1 µM was determined as 67% and the inhibition at 1 µM turned out to be 90%. Moreover, at JAK2, the IC50 amounted to 0.021 µM, the inhibition at 0.1 µM was 88% and the inhibition at 1 µM was found to be 93%.
On to `Cc1ccc(NC(=O)CCC(F)(F)F)cc1N1CCc2nc(Nc3ccc(N4CCN(C)CC4)cc3)ncc2C1` [Compound 131, 4,4,4-Trifluoro-N-(4-methyl-3-{2-[4-(4-methyl-piperazin-1-yl)-phenylamino]-7,8-dihydro-5H-pyrido[4,3-d]pyrimidin-6-yl}-phenyl)-butyramide], for which a half-maximal response with Mda-Mb-231 cells (EC50) required 0.88 µM. The compound further returned a Vd in “Volume distribution” of 7.14 L/kg. Besides, on c-Src, the inhibition at 0.1 µM came to 74% and the inhibition at 1 µM worked out at 90%.
With `Cc1cc(Nc2ncc3c(n2)CCN(c2cc(NC(=O)c4cccc(C(F)(F)F)c4)ccc2Cl)C3=O)ccc1N1CCN(C)CC1` [Compound 171, N-(4-Chloro-3-{2-[3-methyl-4-(4-methyl-piperazin-1-yl)-phenylamino]-5-oxo-7,8-dihydro-5H-pyrido[4,3-d]pyrimidin-6-yl}-phenyl)-3-trifluoromethyl-benzamide], the results for the EC50 in the data set with Mda-Mb-231 cells and with A549 cells were 1.3 µM and 2.1 µM, respectively. Moreover, the Vd in “Volume distribution” came to 0.794 L/kg. The “distribution volume (in words)” value in “Volume distribution” was “weak volume of distribution”. Also, the inhibition at 0.1 µM is 61% at JAK1, 74% at c-Src and 92% on JAK2. The figures for the inhibition at 1 µM on JAK1, at c-Src and at JAK2 were 84%, 87% and 97%, respectively. Also, the IC50 was 0.02 µM against c-Src, 0.471 µM in the data set on pStat3 [3] and 0.019 µM against JAK2.
In the data set with Mda-Mb-231 cells, `Cc1ccc(NC(=O)CC(C)C(F)(F)F)cc1N1CCc2nc(Nc3ccc(OCCN4CCCC4)cc3)ncc2C1` (stereo not shown) [Compound 155, 4,4,4-Trifluoro-3-methyl-N-(4-methyl-3-{2-[4-(2-pyrrolidin-1-yl-ethoxy)-phenylamino]-7,8-dihydro-5H-pyrido[4,3-d]pyrimidin-6-yl}-phenyl)-butyramide] showed an EC50 of 1.2 µM. Moreover, the Vd in the data set “Volume distribution” was found to be 11.8 L/kg. Also, the IC50 against c-Src came to 0.002 µM; against JAK2, 0.018 µM.
`O=C(COc1ccc(Nc2ncc3c(n2)CCN(c2cc(NC(=O)c4cccc(C(F)(F)F)c4)ccc2Cl)C3=O)cc1)NC1CC1` [Compound 185, N-(4-Chloro-3-[2-(4-(cyclopropylcarbamoylmethoxy)phenylamino)-5-oxo-7,8-dihydro-5H-pyrido[4,3-d]pyrimidin-6-yl]-phenyl}-3-trifluoromethyl-benzamide] showed a Vd in “Volume distribution” of 0.583 L/kg.
Turning to `CN1CCN(c2ccc(Nc3ncc4c(n3)CCN(c3cc(NC(=O)c5cccc(C(F)(F)F)c5)ccc3Cl)C4=O)cc2)CC1` [Compound 162, N-(4-Chloro-3-{2-[4-(4-methyl-piperazin-1-yl)-phenylamino]-5-oxo-7,8-dihydro-5H-pyrido[4,3-d]pyrimidin-6-yl}-phenyl)-3-trifluoromethyl-benzamide], the EC50 is 1.38 µM in the data set on Mda-Mb-231 cells, 0.6 µM in the data set with A431 cancer cell line and 1.14 µM in the data set with A549 cells. Further, in “Volume distribution”, the Vd is 3.35 L/kg. Further, the values for the IC50 against c-Src, in the data set with pStat3 [3] and against JAK2 were 0.027 µM, 0.35 µM and 0.006 µM, respectively. For the same compound, the inhibition at 0.1 µM at c-Src was determined as 73%; at JAK2, 92%. The inhibition at 1 µM was 81% at c-Src and 97% at JAK2.
Take `Cc1ccc(NC(=O)c2cccc(C(F)(F)F)c2)cc1N1CCc2nc(Nc3ccc(C(=O)N4CCN(C)CC4)cc3)ncc2C1` [Compound 17, N-(4-Methyl-3-{2-[4-(4-methyl-piperazine-1-carbonyl)-phenylamino]-7,8-dihydro-5H-pyrido[4,3-d]pyrimidin-6-yl}-phenyl)-3-trifluoromethyl-benzamide]: the figures for the EC50 in the data set with Mda-Mb-231 cells, in the data set with A431 cancer cell line and in the data set with A549 cells were 0.044 µM, 0.092 µM and 0.01 µM, respectively. Further, the Vd in the data set “Volume distribution” was 7.7 L/kg. Also, the inhibition at 0.1 µM at JAK1 is 85%. Moreover, the inhibition at 1 µM on JAK1 was 89%. Also, the IC50 against c-Src was found to be 0.002 µM; in the data set on pStat3 [3] it was 0.15 µM; against JAK2, 0.003 µM.
